Experimental data reported in patent publication EP2884284A1, “Dry diagnostic reagent” (priority 2013, dated 2015).

Experiments:
[1] = Disintegration and dissolution time of lyophilisates, adjusted Ph. Eur. 7.4 oral lyophilisates method; format: physicochemical; conditions: lyophilisate about 1 mg from 12.5 % (m/V) solution, 300 µL TRIS buffer pH 7.4, about 22°C, no stirring
Procedure: Disintegration of substances described in Examples 5 and 6 were determined according to the method described in the European Pharmacopoeia 7.4 in monograph "tablets" section "oral lyophilisates". The disintegration time is acceptable if the oral lyophilisate disintegrates within 3 minutes in 200mL of "purified water R" at temperatures between 15°C and 25°C. Herein, disintegration is the loss of the overall structure, whereas dissolution means that the compound is completely dissolved.
This method was adjusted for the small volume lyophilisates which were used here (∼10 µL initial solution which corresponds to a lyophilysate mass of about 1 mg). Therefore the lyophilized product was added to 300 µL of TRIS buffer (adjusted pH 7.4 at 22°C) without any additional manipulation, e.g. shaking or stirring. In addition to the disintegration time the time until the whole product was completely dissolved, i.e. no visible particles detectable, has been determined at about 22°C (22.1 - 22.3 °C during the experiment).
. It was not possible to lyophilize pure amorphous calcium lactate due to rapid solidification and partially crystallization of the solution, which contained also 12.5%(m/V) amorphous calcium lactate. Table 9: Disintegration time and dissolution time for substances

[2] = Moisture uptake over saturated K2SO4 solution at about 100% relative humidity; conditions: about 25°C, amorphous except for CaCl2
[3] = Glass transition of the maximally frozen system Tg' by differential scanning calorimetry; conditions: solutions contained 12.5% (m/V) of the respective amorphous solid
From the text: Further, the temperature Tg' is the glass transition temperature of the maximally frozen system, i.e. the glass transition of the amorphous phase within an ice matrix (from ultrapure water).

[4] = Moisture uptake, modified Ph. Eur. 5.11 hygroscopicity method; format: physicochemical; conditions: mass increase during 24h storage over saturated ammonium sulfate solution, 25°C, about 100 mg
Procedure: It determines the mass increase (% (m/mo)) during a 24h storage period over a saturated ammonium sulfate solution.

[5] = Solubility, Ph. Eur. 5.11 procedure in TRIS buffer
From the text: Table 3: Categorization of solubility according to Ph. Eur. 7.4

[6] = Glass transition temperature Tg by differential scanning calorimetry; format: physicochemical
Procedure: Hydranal® Coulomat AG Oven served as a reagent. About 10 mg of the substance was used for an expected residual moisture between 5 - 10%(m/m) and about 50 - 80 mg were used for an expected moisture content […]. […]
Primary drying was carried out at Tinlet = -30° C / 30mtorr for 15h followed by secondary drying at 40°C / 30mtorr for 6h with a heating rate between the two steps of 0.3 °C/min. The glass transition temperature as well as the residual moisture content were measured after freeze drying for the respective substance.

[7] = Hygroscopicity measurement by mass increase in a glove box at relative air humidity > 50%; format: physicochemical; conditions: 1.0g sample, 22.5°C to […], 96 hours, referring to the initial mass
Procedure: The hygroscopicity of compounds was measured by weighing (Mettler AT261 "Delta Range" balance) in the samples at the start of the experiment and at certain time points within a total period of 96 hours. The increase in mass (in %) was calculated for each sample as: (mt -mt0)/(mt0) × 100% [formula] • wherein mt is the mass of the sample at a certain time t and Mt0 is the mass of the sample at the start when placing it in the glove box.

citrated whole blood = assay: ROTEM ex-tem assay, recalcification with freeze-dried pellets; conditions: freeze-dried CaCl2 pellets
Procedure: The compatibility with coagulation measurement was determined using the ROTEM® device. The measurement was conducted according to the respective automated ROTEM® sequence. 300 µL citrated whole blood (obtained from healthy individuals) were used for each measurement. The pipetting of the respective liquid reagents was performed according to the sequence or was skipped for the solid reagents. […] Coagulation was initiated using the tissue factor based ex-tem® reagent.
The ex-tem® assay was selected because of the tissue factor coagulation activation and the resulting short clotting times (CT). Therefore it was possible to investigate whether the freeze-dried products containing a high amount of solid would dissolve rapidly enough to assure complete recalcification and clotting times within a normal range.

Compound | Disintegration time [1] [s] | Dissolution time (mean ± sdv) [1] [s] | Uptake rate during 3h storage at 99.9 % rel. humidity (sat. K2SO4 sol.) [2] | Glass transition of the frozen system (Tg') [3] [°C] | Ph. Eur. method Hygroscopicity [4] | further results
calcium gluconate [CG, reference compound] | <1 | 9 ± 1 | 0.214 ratio compared to CaCl2 | -11.08 | 20.16 %(m/mo | 
Calcium lacto ascorbate [CLA] | <1 | 14 ± 3 |  | -20.18 |  | 
calcium ascorbate [reference compound] | <1 | 11 ± 1 |  | -24.61 | 31.77 %(m/mo | 
O=C([O-])[C@H](O)[C@@H](O)[C@H](O[C@@H]1O[C@H](CO)[C@H](O)[C@H](O)[C@H]1O)[C@H](O)CO.O=C([O-])[C@H](O)[C@@H](O)[C@H](O[C@@H]1O[C@H](CO)[C@H](O)[C@H](O)[C@H]1O)[C@H](O)CO.[Ca+2] [CLB, calcium lactobionate] | <1 | 13 ± 2 | 0.226 ratio compared to CaCl2 | -13.27 | 21.08 %(m/mo | Ph. Eur. method Solubility ([5]; 100mg substance, TRIS buffer isotonic pH = 7.4, 25.0°C, visual after 1 min. mixing and 15 min. storage): very soluble; Calculated solubility Cs ([5]; category limits of table 3 divided by Mr, 15 min): Cs ≥ 1.325 mol/L
calcium lacto lactobionate [CLLB] | <1 | 18 ± 4 | 0.357 ratio compared to CaCl2 | -15.58 | 19.18 %(m/mo | Tg ([6]; CLLB ratio 0, moisture content 14 %(m/m)): 34,39 °C; Tg ([6]; CLLB ratio 0, moisture content 5,196 %(m/m)): 112,86 °C; Tg ([6]; CLLB ratio 0, moisture content 10,151 %(m/m)): 58,45 °C; Tg ([6]; CLLB ratio 34.82, moisture content 0 %(m/m)): 143.05 °C; Tg ([6]; CLLB ratio 34.82, moisture content 4.44 %(m/m)): 104.03 °C; Tg ([6]; CLLB ratio 34.82, moisture content 7.26 %(m/m)): 73.08 °C; Tg ([6]; CLLB ratio 34.82, moisture content 9.86 %(m/m)): 56.42 °C; Tg ([6]; CLLB ratio 34.82, moisture content 11.82 %(m/m)): 47.945 °C; Tg ([6]; CLLB ratio 34.82, moisture content 14.60 %(m/m)): 32.13 °C; Tg ([6]; CLLB ratio 82.77, moisture content 0 %(m/m)): 148.05 °C; Tg ([6]; CLLB ratio 82.77, moisture content 5.19 %(m/m)): 96.38 °C; Tg ([6]; CLLB ratio 82.77, moisture content 6.35 %(m/m)): 79.84 °C; Tg ([6]; CLLB ratio 82.77, moisture content 6.93 %(m/m)): 73.34 °C; Tg ([6]; CLLB ratio 82.77, moisture content 8.00 %(m/m)): 67.39 °C; Tg ([6]; CLLB ratio 82.77, moisture content 14.49 %(m/m)): 34.39 °C; Tg ([6]; CLLB ratio %(m(CL)/m(CLB)) = 100, moisture content 0 %(m/m) (annealed)): 140.08 °C; Tg ([6]; CLLB ratio %(m(CL)/m(CLB)) = 100, moisture content 5.10 %(m/m)): 82.46 °C; Tg ([6]; CLLB ratio %(m(CL)/m(CLB)) = 100, moisture content 8.20 %(m/m)): 64.81 °C; Tg ([6]; CLLB ratio %(m(CL)/m(CLB)) = 100, moisture content 13.87 %(m/m)): 30.65 °C
calcium ascorbate lactobionate [CALB] | <1 | 12 ± 1 |  | -13.28 |  | 
calcium lacto pantothenate [CLP] | <1 | 8 ± 1 |  | -23.02 |  | 
calcium pantothenate [CP, reference compound] | <1 | 6 ± 1 |  | -25.28 | 22.02 %(m/mo | 
calcium lactobionate pantothenate [CLBP] | <1 | 10 ± 2 |  | -18.84 |  | 
[Ca+2].[Cl-].[Cl-] [CaCl2, calcium chloride, reference compound] |  |  | 1.000 ratio compared to CaCl2 |  | CaCl2 = 113.9%(m/mo | mass increase [7]: over 20%; behaviour of freeze-dried pellets (hygroscopicity) (citrated whole blood): liquefied rapidly
calcium lacto gluconate [CLG ME] | <1 | 19 ± 6 | 0.204 ratio compared to CaCl2 | -11.74 |  | 
CC(O)C(=O)[O-].CC(O)C(=O)[O-].[Ca+2] (stereo not shown) [CL, calcium lactate] |  |  | 0.384 ratio compared to CaCl2 |  | 30.28 %(m/mo | 
calcium ascorbate gluconate [CAG] | <1 | 11 ± 2 |  | -15.70 | 19.65 %(m/mo | 
